Laboratory results reported in BigSolDB 2.1.

## COc1cc(C=O)ccc1O
In ethanol, 293.15 K
  solubility (mole fraction): 0.0713
In ethanol, 298.15 K
  solubility (mole fraction): 0.0779
In ethanol, 303.15 K
  solubility (mole fraction): 0.0841
In ethanol, 308.15 K
  solubility (mole fraction): 0.0926
In ethanol, 313.15 K
  solubility (mole fraction): 0.105
In ethanol, 318.15 K
  solubility (mole fraction): 0.118
In ethanol, 323.15 K
  solubility (mole fraction): 0.141
In water, 293.15 K
  solubility (mole fraction): 0.00116
In water, 298.15 K
  solubility (mole fraction): 0.00141
In water, 303.15 K
  solubility (mole fraction): 0.00179
In water, 308.15 K
  solubility (mole fraction): 0.00202
In water, 313.15 K
  solubility (mole fraction): 0.00234
In water, 318.15 K
  solubility (mole fraction): 0.00267
In water, 323.15 K
  solubility (mole fraction): 0.00298
